The source of these data is article PMC11546061, “Development and Evaluation of ABI-171, a New Fluoro-Catechin Derivative, for the Treatment of Idiopathic Pulmonary Fibrosis” (International Journal of Molecular Sciences, 2024).

In one series the target is PIM1 (Homo sapiens, UniProt P11309). The series can be described thus: PIM1 kinase inhibition. The series is classed as biochemical.
Series [1] deals with bleomycin-induced pulmonary fibrosis. The series can be described thus: Therapeutic bleomycin-induced IPF model (treatment from Day 7). The series is classed as in vivo, C57BL/6 mice. The text has this: In this study, drug treatment commenced 7 days post-induction of pulmonary fibrosis using BLM, employing a therapeutic model.
Pulmonary fibrosis was induced by a single intratracheal infusion of bleomycin at a dose of 3 U/kg body weight. Seven days post-bleomycin administration, when fibrosis was established, treatment with the test compounds commenced and continued daily for an additional 21 days.
Throughout the treatment period, body weight, survival rate, and clinical signs were monitored. At the study’s conclusion, mice were sacrificed, and their lungs were harvested for comprehensive histological and biochemical analyses. Lung tissues were processed for H&E and Masson’s trichrome staining to evaluate fibrosis and collagen deposition. Lung hydroxyproline content was measured to quantify collagen accumulation. Inflammatory cell infiltration in BALF was assessed by counting lymphocytes and neutrophils.

The next series concerns the target DYRK1A (Homo sapiens, UniProt Q13627). The experiment in a line: DYRK1A kinase inhibition. The series is classed as biochemical.
Series [2] can be described thus: Pharmacokinetics and lung-tissue distribution after single IV, IN or PO dose. It counts as in vivo, C57BL/6 mice. On the procedure: Plasma concentrations were measured using LC-MS/MS, and PK parameters were calculated with WinNonlin. […] The formulation is based on the solubilizer and penetration enhancer (2-hydroxypropyl)-β-cyclodextrin (HP-β-CD), PEG-400, and water.
They were given a commercial mice chow and water ad libitum. The experiments started after acclimation for at least 1 week. Dosing solutions were made fresh. Fasted mice were administered the test drug by oral (PO), intranasal (IN), and intravenous (IV) routes. […] […] […] Blood was collected into K2EDTA microtubes, kept on ice all the time and centrifuged within 30 min of collection. Blood samples in EDTA vacuum tubes were centrifuged at 4 °C at 15,000× g for 4 min; ~250 µL of plasma was collected into polyethylene tubes containing 50 µL of the ascorbic acid (AA)/TCEP stabilizing solution (20 mM AA and 13 mM TCEP in 50 mM K2HPO4 buffer. The pH of the solution was adjusted to 6.5 using 2 M NaOH). After collection, the plasma samples were immediately snap-frozen in isopropanol/carbon-dioxide dry ice and stored at −80 °C until analysis.
Test catechin was extracted from the above-collected plasma through 3 successive additions of 350 µL of acetonitrile. The plasma and solvent mixture were vortex-mixed for 2 min then snap-frozen with isopropanol/carbon-dioxide dry ice and the extraction solvent was removed. The solvent fractions were pooled into a polyethylene tube kept on ice. The combined fractions were evaporated under a gentle stream of nitrogen at ambient temperature. The residue obtained after evaporation was reconstituted in 200 µL of 75 mM citric acid/25 mM ammonium acetate: acetonitrile (75:25, by vol), vortexed vigorously for 5 min, and 20 µL of the resulting solution was injected into the HPLC column. Lung tissue was collected and treated immediately to avoid product degradation. Within 5 min of extraction, about ~0.4 g of the tissue was homogenized with 1 mL of ice-cold 0.4 M sodium phosphate buffer containing 6 mg of ascorbic acid and 0.5 mg of Na2EDTA (final pH of 6.5). After centrifugation at 4 °C at 15,000× g for 4 min, the supernatant was collected into polyethylene tubes containing 50 µL of the AA/TCEP stabilizing solution (20 mM AA and 13 mM TCEP in 50 mM K2HPO4 buffer. The pH of the solution was adjusted to 6.5 using 2 M NaOH), immediately snap-frozen in isopropanol/carbon-dioxide dry ice and stored at −80 °C until analysis. Extraction was performed as described above for plasma.

A further series addresses PIM2 (Homo sapiens, UniProt Q9P1W9). The experiment in a line: PIM2 kinase inhibition. It counts as biochemical. The text has this:
Table 1 Best DYRK1A inhibitors. | column: PIM2 IC50

A further series has as its target PIM3 (Homo sapiens, UniProt Q86V86). The series can be described thus: PIM3 kinase inhibition. The series is classed as biochemical. The text has this: Table 1 Best DYRK1A inhibitors. | column: PIM3 IC50
Details of series [3]: method as in PMID 36986543. The following applies: mouse, plasma, cited from earlier work.
Series [4] relates to bleomycin-induced pulmonary fibrosis. The experiment in a line: Preventive bleomycin-induced IPF model (treatment from Day 0). The series is classed as in vivo, C57BL/6 mice. The note with it: for body weight: Day 14 to 21 vs BLM model group, ABI compounds 60 mg/kg QD intranasal, pirfenidone 100 mg/kg oral thrice daily; for alveolitis and PF degrees (H&E and Masson staining): relative to bleomycin group; for hydroxyproline content in lung tissues: 21 days. The text has this: Consequently, we opted for intranasal delivery in our first IPF animal model, employing a validated BLM mouse model. […] The experiment considered the day of bleomycin injection as Day 0. […] The experiment was completed after 21 days.
In the preventive model, male C57BL/6 mice, aged 8–10 weeks, were used to simulate the early intervention scenario where treatment begins immediately following the induction of lung injury. […] On day 0, pulmonary fibrosis was induced by administering a single intratracheal infusion of bleomycin at a dose of 3 U/kg body weight, dissolved in 50 μL of sterile saline. Treatment with the test compounds commenced immediately after bleomycin administration and continued daily for 21 days. Body weight, survival rate, and clinical signs were monitored throughout the study.
At the end of the study period, the mice were sacrificed, and their lungs were harvested for histological and biochemical analyses. Lung tissues were fixed in 10% formalin and embedded in paraffin for histological examination using hematoxylin and eosin (H&E) staining to assess tissue morphology, and Masson’s trichrome staining to evaluate collagen deposition. Additionally, lung hydroxyproline content, a marker of collagen accumulation, was quantified using a colorimetric assay. Inflammatory cell infiltration was assessed by counting lymphocytes and neutrophils in bronchoalveolar lavage fluid (BALF).

[5] abbreviates: oral 100 mg/kg once daily, from day 7 post-BLM.
Setting [6] is: C57BL/6, mouse, IV (10 mg/kg), plasma.
Where [7] appears, read: intranasal 50 mg/kg QD, from day 7 post-BLM.
[8] abbreviates: oral 100 mg/kg QD, from day 7 post-BLM.
[9] abbreviates: tissues from Group 4, vs BLM group.
Where [10] appears, read: vs BLM group, 60 mg/kg QD intranasal.
Setting [11] is: vs BLM group, 60 mg/kg QD intranasal, p < 0.05.
The mark [12] stands for this setting: C57BL/6, inhaled or intranasal, mouse, IN (60 mg/kg), lung.

Read-outs that look alike come from different tables or passages of the source.

PIM1, sequence (P11309 whole entry, species assumed): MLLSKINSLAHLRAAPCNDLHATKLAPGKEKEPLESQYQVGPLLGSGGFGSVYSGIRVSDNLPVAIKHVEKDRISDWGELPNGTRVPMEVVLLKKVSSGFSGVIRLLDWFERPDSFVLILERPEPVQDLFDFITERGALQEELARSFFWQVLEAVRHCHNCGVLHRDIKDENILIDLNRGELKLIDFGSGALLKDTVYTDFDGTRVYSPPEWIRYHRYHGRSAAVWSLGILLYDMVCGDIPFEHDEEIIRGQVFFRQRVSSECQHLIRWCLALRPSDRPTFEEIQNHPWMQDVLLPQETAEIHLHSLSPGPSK
PIM2, sequence (Q9P1W9 whole entry, species assumed): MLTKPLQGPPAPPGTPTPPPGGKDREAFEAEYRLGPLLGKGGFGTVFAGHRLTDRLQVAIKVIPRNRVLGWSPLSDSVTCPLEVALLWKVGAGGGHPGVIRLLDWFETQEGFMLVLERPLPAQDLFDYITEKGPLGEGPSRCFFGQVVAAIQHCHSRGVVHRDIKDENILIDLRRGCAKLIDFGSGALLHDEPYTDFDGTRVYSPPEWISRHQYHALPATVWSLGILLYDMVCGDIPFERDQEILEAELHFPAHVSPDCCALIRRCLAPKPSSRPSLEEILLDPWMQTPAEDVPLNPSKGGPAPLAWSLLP

By IC50 is commonly meant the midpoint of a concentration-inhibition curve. What is called mortality is the share of the test organisms that died. A word on the AUC(0-inf): it is total exposure, with the tail of the curve extrapolated. As usually defined, the AUC(0-t) is the area under the concentration-time curve up to a stated or last time point. Read a high AUC(0-t) as high exposure. One may read the half-life as the time needed for the level to fall by half in the phase considered. A low value points to fast loss. In the case of `O=C(O[C@@H]1Cc2c(O)cc(O)cc2O[C@@H]1c1cc(O)c(O)c(O)c1)c1cc(O)c(O)c(O)c1` [EGCG, Epigallocatechin gallate, reference compound], half-maximal inhibition at PIM1 (IC50) required 1360 nM. Also, in series [1] (setting [5]), the “activity in various assessments” value is “limited to moderate activity” and the mortality is reported as 50%. In addition, at DYRK1A, the concentration for half-maximal inhibition (IC50) was found to be 235 nM. The bioavailability in series [2] (C57BL/6, mouse, lung, po, 100 mg/kg, read-out: F (absolute oral bioavailability, PO/IV)) amounted to 2%. In addition, in series [2] (C57BL/6, mouse, lung, po, 100 mg/kg, read-out: Vz/F (PO)), the Vd/F stood at 2680 L/kg. In series [2] (setting [6]), this compound gave an AUC(0-inf) of 1830 ng·h/mL, an AUC(0-t) of 1800 ng·h/mL and a half-life of 5.7 h. Further, in series [2] (C57BL/6, mouse, IV (10 mg/kg), plasma, read-out: Cmax), the Cmax stood at 4420 ng/mL. For the same compound, the Vd in series [2] (C57BL/6, mouse, IV (10 mg/kg), plasma, read-out: Vz(IV)) is 45.2 L/kg. Besides, the T1/2 in series [2] (EGCG column, PO (100 mg/kg), head prints Lung) amounted to 5 h.
In general, Tmax refers to the time at which the peak concentration occurs. Compound `COc1cc(C(=O)O[C@@H]2Cc3c(O)cc(O)cc3O[C@H]2c2cc(O)c(O)c(O)c2)c(F)c(O)c1O` [ABI-171] returned an IC50 against PIM2 of 255 nM. The compound further came in with an IC50 against PIM1 of 87 nM. The compound further registered a half-maximal inhibitory concentration (IC50) against PIM3 of 813 nM. Besides, in series [1] (day 21 of treatment), the “BLM-induced lung collagen level” value is recorded as “significant reductions” and the “BLM-induced lung fibronectin level” value was “significant reductions”. Moreover, in series [1] (setting [7]), the body weight entry was “good recovery in body weight” and the survival result was “complete survival”. The “BLM-induced lung injuries, Masson's and H&E scores” value in series [1] (intranasal 10 and 50 mg/kg, oral 100 mg/kg QD) is “improvements”. Also, in series [1] (setting [8]), the body weight entry is given as “good recovery in body weight” and the survival result is “complete survival”. Also, the “E-cadherin levels in lung” value in series [1] (oral treatment, tissues from Group 4) is “significantly elevated”. Besides, in series [1] (setting [9]), the “PIM1 level in lung” value was “significantly reduced”, the “Smad3 (p-Smad3) levels in lung” value is given as “significantly reduces”, the “Snail expression in lung” value is listed as “reduce Snail expression” and the “αSMA level in lung” value is recorded as “downregulating”. Besides, in series [3] (IN (60 mg/kg)), the Tlast is 24 h. In series [3] (IV (5 mg/kg)), the “CL(IV)” value is on record as 60 mL/min/kg and the “Vz(IV)” value is recorded as 17 L/kg. Also, in series [3] (PO (100 mg/kg)), the “CL/F (PO)” value is listed as 101 mL/min/kg; the “F (absolute oral bioavailability, PO/IV)” value is 16%; the Tlast is listed as 24 h; the “Vz/F (PO)” value is 15.6 L/kg. In addition, the IC50 on DYRK1A (read-out: DYRK1A IC50) came out at 73 nM. The body weight entry in series [4] was “significant increase in body weight”. Moreover, the “alveolitis and PF degrees (H&E and Masson staining)” value in series [4] (60 mg/kg QD intranasal) was “decrease in the alveolitis and PF degrees”. Also, in series [4] (setting [10]), the “hydroxyproline content in lung tissues” value is given as “significantly decreased”. In series [4] (setting [11]), the “lymphocytes (BALF)” value is recorded as “significantly reduced” and the “neutrophils (BALF)” value was “significantly reduced”. In series [2] (setting [12]), the AUC(0-inf) came out at 23200 ng·h/mL, the AUC(0-t) came out at 23100 ng·h/mL, the Tmax came out at 4 h and the half-life was 3.93 h. Also, the Cmax in series [2] (C57BL/6, inhaled or intranasal, mouse, IN (60 mg/kg), lung, read-out: Cmax) was determined as 8740 ng/g. In series [2] (C57BL/6, mouse, PO (100 mg/kg), lung), the AUC(0-t) is 214 ng·h/mL. The Cmax in series [2] (C57BL/6, mouse, PO (100 mg/kg), lung, read-out: Cmax) came out at 231 ng/g. Besides, the Cmax in series [2] (IN route (60 mg/kg), total not unbound drug, read-out: theoretical cellular concentration in the lungs at Cmax) was about 17.8 µM. This compound also showed a Tlast in series [2] (mouse, IN (60 mg/kg), lung) of 24 h. In series [2] (mouse, PO (100 mg/kg), lung), this compound yielded a Tlast of 24 h.
`Cc1ccc(=O)n(-c2ccccc2)c1` [pirfenidone, Pirfenidone, reference compound]: the body weight entry in series [4] is recorded as “significant increase in body weight”.
Consider `O=C(O[C@@H]1Cc2c(O)cc(O)cc2O[C@H]1c1cc(O)c(O)c(O)c1)c1c(F)c(O)c(O)c(O)c1F` [ABI-154], for which the IC50 at PIM2 is 1080 nM; against PIM1 it was 722 nM; against PIM3, 6000 nM; at DYRK1A (read-out: DYRK1A IC50) it was 28 nM. Also, the Tlast in series [3] (PO (100 mg/kg)) is 24 h. The body weight entry in series [4] is “no body weight gain effect”. In addition, the “alveolitis and PF degrees (H&E and Masson staining)” value in series [4] (60 mg/kg QD intranasal) was “decrease in the alveolitis and PF degrees”. Also, the “hydroxyproline content in lung tissues” value in series [4] (setting [10]) was “significantly decreased”.
